# According to PMC12621043, “Un-LOK-ing a New Approach for Conformational Selective Targeting of STK10 (LOK)” (ACS Medicinal Chemistry Letters, 2025):
# Molecular target: T1, STK10 (Homo sapiens, UniProt O94804)
# T1 construct: purchased in-house DSF kinase panel (SGC-style construct names; the trailing letter is the construct ID)
# Assay: DSF Tm panel
# Assay type: binding
# Conditions: 10 μM compound
# T1 sequence (O94804 18-317 limits assumed): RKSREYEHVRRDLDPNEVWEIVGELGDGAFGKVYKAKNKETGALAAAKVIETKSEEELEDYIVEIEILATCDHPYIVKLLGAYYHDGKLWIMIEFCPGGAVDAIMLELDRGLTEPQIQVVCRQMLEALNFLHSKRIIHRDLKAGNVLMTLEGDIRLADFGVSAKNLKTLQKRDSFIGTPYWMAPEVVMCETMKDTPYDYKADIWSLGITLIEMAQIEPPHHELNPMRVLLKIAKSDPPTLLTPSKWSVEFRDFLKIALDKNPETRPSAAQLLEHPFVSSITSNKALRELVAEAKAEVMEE
row,SMILES,ΔTm at 10 µM
1,O=C(NCc1ccccc1)Nc1ccc2cc1OCCOCCNc1ccn3ncc-2c3n1 [compound 16],6.9 °C
2,O=C(NCc1ccccc1Cl)Nc1ccc2cc1OCCOCCNc1ccn3ncc-2c3n1 [compound 17],8.5 °C

# Molecular target: T2, UKL3A (ULK3A) (Homo sapiens, UniProt Q6PHR2)
# T2 construct: purchased in-house DSF kinase panel (SGC-style construct names; the trailing letter is the construct ID)
# T2 sequence (Q6PHR2 1-279): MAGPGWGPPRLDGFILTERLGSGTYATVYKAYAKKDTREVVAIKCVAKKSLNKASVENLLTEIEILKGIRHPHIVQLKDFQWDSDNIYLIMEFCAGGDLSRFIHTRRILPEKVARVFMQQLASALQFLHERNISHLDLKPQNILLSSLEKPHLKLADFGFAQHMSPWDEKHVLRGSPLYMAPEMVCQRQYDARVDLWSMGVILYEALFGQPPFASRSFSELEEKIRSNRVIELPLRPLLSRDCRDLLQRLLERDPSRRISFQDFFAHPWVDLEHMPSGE
# Assay: DSF Tm panel
# Assay type: binding
# Conditions: 10 μM compound
row,SMILES,ΔTm at 10 µM
1,O=C(NCc1ccccc1)Nc1ccc2cc1OCCOCCNc1ccn3ncc-2c3n1 [compound 16],6.8 °C
2,O=C(NCc1ccccc1Cl)Nc1ccc2cc1OCCOCCNc1ccn3ncc-2c3n1 [compound 17],3.2 °C

# Molecular target: T3, CLK1A (Homo sapiens, UniProt P49759)
# T3 construct: purchased in-house DSF kinase panel (SGC-style construct names; the trailing letter is the construct ID)
# Assay: DSF Tm panel
# Assay type: binding
# Conditions: 10 μM compound
# T3 sequence (P49759 148-484): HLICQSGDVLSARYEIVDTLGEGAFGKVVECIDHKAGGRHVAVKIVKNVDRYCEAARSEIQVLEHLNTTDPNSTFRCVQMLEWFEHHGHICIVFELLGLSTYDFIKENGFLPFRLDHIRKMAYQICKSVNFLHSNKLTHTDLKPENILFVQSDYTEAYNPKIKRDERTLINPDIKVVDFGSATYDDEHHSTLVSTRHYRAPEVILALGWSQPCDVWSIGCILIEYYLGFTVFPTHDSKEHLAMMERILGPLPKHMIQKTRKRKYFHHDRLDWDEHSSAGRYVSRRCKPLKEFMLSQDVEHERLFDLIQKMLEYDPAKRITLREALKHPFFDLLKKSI
row,SMILES,ΔTm at 10 µM
1,O=C(NCc1ccccc1)Nc1ccc2cc1OCCOCCNc1ccn3ncc-2c3n1 [compound 16],3.4 °C
2,O=C(NCc1ccccc1Cl)Nc1ccc2cc1OCCOCCNc1ccn3ncc-2c3n1 [compound 17],4.5 °C

# Molecular target: T4, DAPK3 (DAPK3A) (Homo sapiens, UniProt O43293)
# T4 construct: purchased in-house DSF kinase panel (SGC-style construct names; the trailing letter is the construct ID)
# Assay: DSF Tm panel
# Assay type: binding
# Conditions: 10 μM compound
# T4 sequence (O43293 whole entry): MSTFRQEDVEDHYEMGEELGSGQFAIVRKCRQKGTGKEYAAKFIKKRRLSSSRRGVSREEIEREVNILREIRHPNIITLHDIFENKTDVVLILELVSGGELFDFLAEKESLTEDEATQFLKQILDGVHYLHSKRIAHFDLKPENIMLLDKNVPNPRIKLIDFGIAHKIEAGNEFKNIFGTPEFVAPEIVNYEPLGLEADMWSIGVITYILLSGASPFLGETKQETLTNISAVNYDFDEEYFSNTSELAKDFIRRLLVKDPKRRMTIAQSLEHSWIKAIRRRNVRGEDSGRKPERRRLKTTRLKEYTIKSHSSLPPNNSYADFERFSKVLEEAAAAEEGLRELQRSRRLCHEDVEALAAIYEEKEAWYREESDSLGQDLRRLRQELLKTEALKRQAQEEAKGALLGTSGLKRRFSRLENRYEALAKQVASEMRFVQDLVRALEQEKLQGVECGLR
row,SMILES,ΔTm at 10 µM
1,O=C(NCc1ccccc1)Nc1ccc2cc1OCCOCCNc1ccn3ncc-2c3n1 [compound 16],3.4 °C
2,O=C(NCc1ccccc1Cl)Nc1ccc2cc1OCCOCCNc1ccn3ncc-2c3n1 [compound 17],0.7 °C

# Molecular target: T5, MAP3K5A (Homo sapiens, UniProt Q99683)
# T5 construct: purchased in-house DSF kinase panel (SGC-style construct names; the trailing letter is the construct ID)
# Assay: DSF Tm panel
# Assay type: binding
# Conditions: 10 μM compound
# T5 sequence (Q99683 659-951): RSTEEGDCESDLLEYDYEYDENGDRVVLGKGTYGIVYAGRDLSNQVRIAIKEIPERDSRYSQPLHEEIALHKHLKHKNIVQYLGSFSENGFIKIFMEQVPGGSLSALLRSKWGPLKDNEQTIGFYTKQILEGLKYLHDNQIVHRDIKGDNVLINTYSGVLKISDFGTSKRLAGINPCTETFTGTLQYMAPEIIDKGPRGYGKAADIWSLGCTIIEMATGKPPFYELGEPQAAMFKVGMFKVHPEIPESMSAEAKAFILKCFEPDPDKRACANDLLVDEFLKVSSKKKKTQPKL
row,SMILES,ΔTm at 10 µM
1,O=C(NCc1ccccc1)Nc1ccc2cc1OCCOCCNc1ccn3ncc-2c3n1 [compound 16],2 °C
2,O=C(NCc1ccccc1Cl)Nc1ccc2cc1OCCOCCNc1ccn3ncc-2c3n1 [compound 17],1 °C

# Molecular target: T6, PCTK1A (Homo sapiens, UniProt Q00536)
# T6 construct: purchased in-house DSF kinase panel (SGC-style construct names; the trailing letter is the construct ID)
# Assay: DSF Tm panel
# Assay type: binding
# Conditions: 10 μM compound
# T6 sequence (Q00536 163-478): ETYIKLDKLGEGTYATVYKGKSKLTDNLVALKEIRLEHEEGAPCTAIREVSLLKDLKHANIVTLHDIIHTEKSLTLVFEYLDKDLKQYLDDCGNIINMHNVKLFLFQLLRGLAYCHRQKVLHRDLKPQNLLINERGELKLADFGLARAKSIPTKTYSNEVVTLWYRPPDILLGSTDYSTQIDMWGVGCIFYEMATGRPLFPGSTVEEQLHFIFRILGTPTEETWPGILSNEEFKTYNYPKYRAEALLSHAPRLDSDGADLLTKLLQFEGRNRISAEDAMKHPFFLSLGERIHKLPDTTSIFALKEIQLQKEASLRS
row,SMILES,ΔTm at 10 µM
1,O=C(NCc1ccccc1)Nc1ccc2cc1OCCOCCNc1ccn3ncc-2c3n1 [compound 16],1.8 °C
2,O=C(NCc1ccccc1Cl)Nc1ccc2cc1OCCOCCNc1ccn3ncc-2c3n1 [compound 17],2.5 °C

# Molecular target: T7, MAP2K6A (Homo sapiens, UniProt P52564)
# T7 construct: purchased in-house DSF kinase panel (SGC-style construct names; the trailing letter is the construct ID)
# T7 sequence (P52564 53-314): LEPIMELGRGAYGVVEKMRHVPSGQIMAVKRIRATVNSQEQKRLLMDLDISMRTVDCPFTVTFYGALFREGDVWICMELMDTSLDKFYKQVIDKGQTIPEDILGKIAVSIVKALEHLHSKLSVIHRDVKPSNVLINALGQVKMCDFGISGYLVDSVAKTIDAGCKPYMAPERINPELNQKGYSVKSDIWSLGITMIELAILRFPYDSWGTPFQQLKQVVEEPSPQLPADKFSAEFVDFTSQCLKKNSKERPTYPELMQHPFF
# Assay: DSF Tm panel
# Assay type: binding
# Conditions: 10 μM compound
row,SMILES,ΔTm at 10 µM
1,O=C(NCc1ccccc1)Nc1ccc2cc1OCCOCCNc1ccn3ncc-2c3n1 [compound 16],1.4 °C
2,O=C(NCc1ccccc1Cl)Nc1ccc2cc1OCCOCCNc1ccn3ncc-2c3n1 [compound 17],0.9 °C

# Molecular target: T8, CAMK2BA (Homo sapiens, UniProt Q13554)
# T8 construct: purchased in-house DSF kinase panel (SGC-style construct names; the trailing letter is the construct ID)
# Assay: DSF Tm panel
# Assay type: binding
# Conditions: 10 μM compound
# T8 sequence (Q13554 11-303): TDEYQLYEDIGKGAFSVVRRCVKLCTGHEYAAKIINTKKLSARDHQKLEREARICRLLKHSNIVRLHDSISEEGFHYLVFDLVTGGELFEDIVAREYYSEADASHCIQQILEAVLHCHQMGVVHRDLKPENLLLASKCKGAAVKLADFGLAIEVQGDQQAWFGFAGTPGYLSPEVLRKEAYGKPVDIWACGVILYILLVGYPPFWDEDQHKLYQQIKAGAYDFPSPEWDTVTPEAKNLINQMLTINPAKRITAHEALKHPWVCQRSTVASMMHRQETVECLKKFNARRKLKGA
row,SMILES,ΔTm at 10 µM
1,O=C(NCc1ccccc1)Nc1ccc2cc1OCCOCCNc1ccn3ncc-2c3n1 [compound 16],1.3 °C
2,O=C(NCc1ccccc1Cl)Nc1ccc2cc1OCCOCCNc1ccn3ncc-2c3n1 [compound 17],0.3 °C

# Molecular target: T9, ABL1 (ABL1A) (Homo sapiens, UniProt P00519)
# T9 construct: purchased in-house DSF kinase panel (SGC-style construct names; the trailing letter is the construct ID)
# T9 sequence (P00519 229-512): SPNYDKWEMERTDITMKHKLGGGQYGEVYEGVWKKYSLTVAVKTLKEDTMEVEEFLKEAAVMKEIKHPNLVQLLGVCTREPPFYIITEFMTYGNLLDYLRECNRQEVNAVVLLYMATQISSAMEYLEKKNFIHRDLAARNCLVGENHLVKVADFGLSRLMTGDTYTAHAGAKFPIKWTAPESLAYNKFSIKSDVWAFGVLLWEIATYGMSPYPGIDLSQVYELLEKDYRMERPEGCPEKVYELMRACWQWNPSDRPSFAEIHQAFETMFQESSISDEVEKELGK
# Assay: DSF Tm panel
# Assay type: binding
# Conditions: 10 μM compound
row,SMILES,ΔTm at 10 µM
1,O=C(NCc1ccccc1)Nc1ccc2cc1OCCOCCNc1ccn3ncc-2c3n1 [compound 16],1.2 °C
2,O=C(NCc1ccccc1Cl)Nc1ccc2cc1OCCOCCNc1ccn3ncc-2c3n1 [compound 17],1.7 °C

# Molecular target: T10, PIM1 (PIM1A) (Homo sapiens, UniProt P11309)
# T10 construct: purchased in-house DSF kinase panel (SGC-style construct names; the trailing letter is the construct ID)
# Assay: DSF Tm panel
# Assay type: binding
# Conditions: 10 μM compound
# T10 sequence (P11309 whole entry): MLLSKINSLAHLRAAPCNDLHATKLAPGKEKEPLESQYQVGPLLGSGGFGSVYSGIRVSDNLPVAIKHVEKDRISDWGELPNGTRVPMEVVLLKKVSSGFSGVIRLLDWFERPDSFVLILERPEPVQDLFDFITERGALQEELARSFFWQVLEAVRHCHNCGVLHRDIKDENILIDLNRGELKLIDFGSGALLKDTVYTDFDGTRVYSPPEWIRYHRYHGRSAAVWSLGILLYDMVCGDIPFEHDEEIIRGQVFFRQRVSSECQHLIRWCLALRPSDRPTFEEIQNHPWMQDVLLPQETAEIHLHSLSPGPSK
row,SMILES,ΔTm at 10 µM
1,O=C(NCc1ccccc1)Nc1ccc2cc1OCCOCCNc1ccn3ncc-2c3n1 [compound 16],1.2 °C
2,O=C(NCc1ccccc1Cl)Nc1ccc2cc1OCCOCCNc1ccn3ncc-2c3n1 [compound 17],1.5 °C

# Molecular target: T11, GPRK5A (Homo sapiens, UniProt P34947)
# T11 construct: purchased in-house DSF kinase panel (SGC-style construct names; the trailing letter is the construct ID)
# Assay: DSF Tm panel
# Assay type: binding
# Conditions: 10 μM compound
# T11 sequence (P34947 186-514): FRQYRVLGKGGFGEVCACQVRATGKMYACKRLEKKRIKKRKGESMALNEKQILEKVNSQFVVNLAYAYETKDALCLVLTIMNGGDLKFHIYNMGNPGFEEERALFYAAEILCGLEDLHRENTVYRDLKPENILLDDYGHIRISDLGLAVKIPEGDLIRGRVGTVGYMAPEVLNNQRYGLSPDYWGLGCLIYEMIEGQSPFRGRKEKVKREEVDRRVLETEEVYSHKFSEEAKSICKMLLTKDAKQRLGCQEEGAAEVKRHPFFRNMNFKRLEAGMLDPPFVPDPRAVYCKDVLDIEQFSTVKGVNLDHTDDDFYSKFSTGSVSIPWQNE
row,SMILES,ΔTm at 10 µM
1,O=C(NCc1ccccc1)Nc1ccc2cc1OCCOCCNc1ccn3ncc-2c3n1 [compound 16],1.2 °C
2,O=C(NCc1ccccc1Cl)Nc1ccc2cc1OCCOCCNc1ccn3ncc-2c3n1 [compound 17],1.3 °C

# Molecular target: T12, BRAFA (Homo sapiens, UniProt P15056)
# T12 construct: purchased in-house DSF kinase panel (SGC-style construct names; the trailing letter is the construct ID)
# Assay: DSF Tm panel
# Assay type: binding
# Conditions: 10 μM compound
# T12 sequence (P15056 448-723): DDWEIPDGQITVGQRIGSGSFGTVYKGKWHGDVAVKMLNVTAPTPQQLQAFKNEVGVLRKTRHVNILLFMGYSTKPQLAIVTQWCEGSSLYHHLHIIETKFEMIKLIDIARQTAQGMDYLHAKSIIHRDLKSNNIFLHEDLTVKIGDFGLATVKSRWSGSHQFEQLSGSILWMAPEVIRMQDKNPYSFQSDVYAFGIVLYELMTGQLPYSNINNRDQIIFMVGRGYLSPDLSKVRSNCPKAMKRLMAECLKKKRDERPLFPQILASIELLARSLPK
row,SMILES,ΔTm at 10 µM
1,O=C(NCc1ccccc1)Nc1ccc2cc1OCCOCCNc1ccn3ncc-2c3n1 [compound 16],0.8 °C
2,O=C(NCc1ccccc1Cl)Nc1ccc2cc1OCCOCCNc1ccn3ncc-2c3n1 [compound 17],0.8 °C

# Molecular target: T13, CSNK1DA (Homo sapiens, UniProt P48730)
# T13 construct: purchased in-house DSF kinase panel (SGC-style construct names; the trailing letter is the construct ID)
# T13 sequence (P48730 1-294): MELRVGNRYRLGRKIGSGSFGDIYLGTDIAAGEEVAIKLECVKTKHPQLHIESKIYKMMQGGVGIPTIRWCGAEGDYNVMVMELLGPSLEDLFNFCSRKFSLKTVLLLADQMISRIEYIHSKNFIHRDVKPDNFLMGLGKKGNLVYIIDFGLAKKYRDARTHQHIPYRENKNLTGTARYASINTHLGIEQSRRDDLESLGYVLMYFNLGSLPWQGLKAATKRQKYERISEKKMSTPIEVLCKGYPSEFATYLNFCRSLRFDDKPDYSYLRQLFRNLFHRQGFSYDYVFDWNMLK
# Assay: DSF Tm panel
# Assay type: binding
# Conditions: 10 μM compound
row,SMILES,ΔTm at 10 µM
1,O=C(NCc1ccccc1)Nc1ccc2cc1OCCOCCNc1ccn3ncc-2c3n1 [compound 16],0.7 °C
2,O=C(NCc1ccccc1Cl)Nc1ccc2cc1OCCOCCNc1ccn3ncc-2c3n1 [compound 17],0.6 °C

# Molecular target: T14, OSR1A (Homo sapiens, UniProt O95747)
# T14 construct: purchased in-house DSF kinase panel (SGC-style construct names; the trailing letter is the construct ID)
# Assay: DSF Tm panel
# Assay type: binding
# Conditions: 10 μM compound
# T14 sequence (O95747 17-291): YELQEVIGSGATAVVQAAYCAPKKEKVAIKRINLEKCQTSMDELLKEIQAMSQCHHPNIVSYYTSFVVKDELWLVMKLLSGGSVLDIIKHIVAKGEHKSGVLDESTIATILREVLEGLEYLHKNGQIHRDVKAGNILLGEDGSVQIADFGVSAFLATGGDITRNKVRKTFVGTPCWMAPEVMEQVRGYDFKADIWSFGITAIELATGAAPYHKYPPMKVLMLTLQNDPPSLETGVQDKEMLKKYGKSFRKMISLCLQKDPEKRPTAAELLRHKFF
row,SMILES,ΔTm at 10 µM
1,O=C(NCc1ccccc1)Nc1ccc2cc1OCCOCCNc1ccn3ncc-2c3n1 [compound 16],0.5 °C
2,O=C(NCc1ccccc1Cl)Nc1ccc2cc1OCCOCCNc1ccn3ncc-2c3n1 [compound 17],0.7 °C

# Molecular target: T15, DMPK1A (Homo sapiens, UniProt Q09013)
# T15 construct: purchased in-house DSF kinase panel (SGC-style construct names; the trailing letter is the construct ID)
# T15 sequence (Q09013 1-629): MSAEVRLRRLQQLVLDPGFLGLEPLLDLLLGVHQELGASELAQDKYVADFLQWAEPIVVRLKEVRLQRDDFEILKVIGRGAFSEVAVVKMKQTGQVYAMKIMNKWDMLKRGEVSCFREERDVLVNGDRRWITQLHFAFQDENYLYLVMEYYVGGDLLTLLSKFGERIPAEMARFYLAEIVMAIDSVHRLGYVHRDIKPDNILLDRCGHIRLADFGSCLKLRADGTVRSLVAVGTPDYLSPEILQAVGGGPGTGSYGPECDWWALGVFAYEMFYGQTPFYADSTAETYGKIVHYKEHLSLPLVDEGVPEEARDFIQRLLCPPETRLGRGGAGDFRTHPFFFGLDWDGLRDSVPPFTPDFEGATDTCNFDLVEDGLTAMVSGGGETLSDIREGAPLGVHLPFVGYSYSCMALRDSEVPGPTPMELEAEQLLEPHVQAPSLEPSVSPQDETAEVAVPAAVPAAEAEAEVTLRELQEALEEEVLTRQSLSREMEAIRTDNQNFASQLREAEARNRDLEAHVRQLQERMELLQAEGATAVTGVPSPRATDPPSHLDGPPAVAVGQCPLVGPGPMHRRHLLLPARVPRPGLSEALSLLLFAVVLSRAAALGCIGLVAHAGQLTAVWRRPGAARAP
# Assay: DSF Tm panel
# Assay type: binding
# Conditions: 10 μM compound
row,SMILES,ΔTm at 10 µM
1,O=C(NCc1ccccc1)Nc1ccc2cc1OCCOCCNc1ccn3ncc-2c3n1 [compound 16],0.3 °C
2,O=C(NCc1ccccc1Cl)Nc1ccc2cc1OCCOCCNc1ccn3ncc-2c3n1 [compound 17],-0.1 °C

# Molecular target: T16, SRPK1A (Homo sapiens, UniProt Q96SB4)
# T16 construct: purchased in-house DSF kinase panel (SGC-style construct names; the trailing letter is the construct ID)
# Assay: DSF Tm panel
# Assay type: binding
# Conditions: 10 μM compound
# T16 sequence (Q96SB4 80-653): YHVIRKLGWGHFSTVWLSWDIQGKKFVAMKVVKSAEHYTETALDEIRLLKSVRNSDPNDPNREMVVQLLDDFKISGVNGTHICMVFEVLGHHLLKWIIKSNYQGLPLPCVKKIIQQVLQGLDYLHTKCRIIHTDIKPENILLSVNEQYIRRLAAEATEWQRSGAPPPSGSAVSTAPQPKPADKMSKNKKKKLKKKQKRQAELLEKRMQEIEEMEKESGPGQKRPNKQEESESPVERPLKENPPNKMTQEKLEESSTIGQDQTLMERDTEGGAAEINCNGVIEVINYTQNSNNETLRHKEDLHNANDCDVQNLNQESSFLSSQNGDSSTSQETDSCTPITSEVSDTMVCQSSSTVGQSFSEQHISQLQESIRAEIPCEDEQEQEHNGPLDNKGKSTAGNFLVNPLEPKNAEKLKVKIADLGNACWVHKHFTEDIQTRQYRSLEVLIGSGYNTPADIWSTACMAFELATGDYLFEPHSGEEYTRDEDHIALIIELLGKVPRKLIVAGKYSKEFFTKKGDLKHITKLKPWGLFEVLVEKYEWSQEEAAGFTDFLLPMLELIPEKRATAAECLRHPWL
row,SMILES,ΔTm at 10 µM
1,O=C(NCc1ccccc1)Nc1ccc2cc1OCCOCCNc1ccn3ncc-2c3n1 [compound 16],0 °C
2,O=C(NCc1ccccc1Cl)Nc1ccc2cc1OCCOCCNc1ccn3ncc-2c3n1 [compound 17],0 °C

# Molecular target: T17, AKT3A (Homo sapiens, UniProt Q9Y243)
# T17 construct: purchased in-house DSF kinase panel (SGC-style construct names; the trailing letter is the construct ID)
# Assay: DSF Tm panel
# Assay type: binding
# Conditions: 10 μM compound
# T17 sequence (Q9Y243 148-479): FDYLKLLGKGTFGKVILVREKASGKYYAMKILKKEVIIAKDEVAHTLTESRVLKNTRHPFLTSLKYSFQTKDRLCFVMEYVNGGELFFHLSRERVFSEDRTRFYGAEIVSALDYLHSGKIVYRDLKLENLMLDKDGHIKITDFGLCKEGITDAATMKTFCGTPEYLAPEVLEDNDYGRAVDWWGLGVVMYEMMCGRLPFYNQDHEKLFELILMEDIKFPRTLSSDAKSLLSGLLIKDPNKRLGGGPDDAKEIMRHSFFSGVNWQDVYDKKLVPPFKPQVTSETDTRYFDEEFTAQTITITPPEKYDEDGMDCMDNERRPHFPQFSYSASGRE
row,SMILES,ΔTm at 10 µM
1,O=C(NCc1ccccc1)Nc1ccc2cc1OCCOCCNc1ccn3ncc-2c3n1 [compound 16],0 °C
2,O=C(NCc1ccccc1Cl)Nc1ccc2cc1OCCOCCNc1ccn3ncc-2c3n1 [compound 17],-0.3 °C

# Molecular target: T18, MAPK14A (Homo sapiens, UniProt Q16539)
# T18 construct: purchased in-house DSF kinase panel (SGC-style construct names; the trailing letter is the construct ID)
# Assay: DSF Tm panel
# Assay type: binding
# Conditions: 10 μM compound
# T18 sequence (Q16539 whole entry): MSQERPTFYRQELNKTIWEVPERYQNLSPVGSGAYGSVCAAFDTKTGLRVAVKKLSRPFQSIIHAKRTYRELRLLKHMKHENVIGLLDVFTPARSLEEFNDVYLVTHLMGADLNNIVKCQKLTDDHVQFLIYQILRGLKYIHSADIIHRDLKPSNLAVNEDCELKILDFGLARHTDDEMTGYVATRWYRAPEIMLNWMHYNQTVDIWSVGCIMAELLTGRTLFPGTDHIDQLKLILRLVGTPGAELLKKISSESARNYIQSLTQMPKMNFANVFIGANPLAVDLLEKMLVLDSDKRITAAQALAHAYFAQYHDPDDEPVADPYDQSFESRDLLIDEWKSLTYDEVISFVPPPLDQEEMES
row,SMILES,ΔTm at 10 µM
1,O=C(NCc1ccccc1)Nc1ccc2cc1OCCOCCNc1ccn3ncc-2c3n1 [compound 16],-0.6 °C
2,O=C(NCc1ccccc1Cl)Nc1ccc2cc1OCCOCCNc1ccn3ncc-2c3n1 [compound 17],0 °C
